According to patent US20060062841A1, “Liposomal vectors” (priority 2004, published 2006):

Assays:
TNF-α = assay: Cytokine assay in the blood: TNF-α; type: in vivo, mouse
Experimental: FIG. 3A-C. Comparison the levels of TNF-α in blood (a), organs (b) and the blood levels of IL-12 and IFN-γ (c) after injection of the lipoplexes and safeplexes. The charge ratio of DOTA to DNA (+/−) (a) was varied from 0 to 12 and (b) and (c) was fixed at 6 to 1. The levels of cytokines were detected 2 h (a,b) or 6 h (c) after injection of the lipoplexes and safeplexes containing 25 μg pDNA. P<0.001 (three mice in each group).
FIG. 4A-B. Effect of (A) DEX dose and (B) time course on suppressing TNF-α. Mice were (three in each group) injected with the lipoplexes or safeplexes with (A) a varied ratio of DEX to DOTAP and (B) with a ratio of DEX to DOTAP of 1/10 (w/w). (a, b) The charge ratio of DOTAP to DNA was fixed at 6 to 1. P>0.5, P<0.001
FIG. 5. Inhibition of TNF-α production by other suppressors. The levels of TNF-α in the blood were analyzed 2 h after the injection of lipoplexes and safeplexes with a charge ratio of DNA to DOTAP of 1/6 (mol/mol). P<0.001 (n=3).
At indicated time points (2 h for TNF-α, 6 h for IL-12 and IFN-γ) following the injection of a tested sample containing 25 μg of pDNA, the blood and organs (the liver, lung and spleen) were collected. The blood was allowed to clot on ice for at least 4 h and then centrifuged at 3000 g for 20 min at 4° C., and serum was collected for the cytokine assay. For the organ assay, […] of each organ was added with 0.5 ml PBS buffer and homogenized for 20 s at the highest speed. The homogenates were frozen (in liquid nitrogen) and thawed (in 37° C. water bath) three times and then centrifuged at 14,000 g for 5 min. The supernatants were collected for the cytokine assay. The concentrations of cytokines (TNF-α, IL-12 and IFN-γ) were determined with mouse cytokine immunoassay kits (R&D System, Minneapolis, Minn.). Data were analyzed by the paired Student's t test using Excel. Data were considered statistically significant if P<0.01.

immune cells = conditions: sublethally irradiated mice, intraperitoneal injection; cited from earlier work

| Compound | effect on TNF-α production in blood (TNF-α; mouse, in vivo) | further results |
| --- | --- | --- |
| C[C@]12C=CC(=O)C=C1CC[C@@H]1[C@@H]2C(=O)C[C@@]2(C)[C@H]1CC[C@]2(O)C(=O)CO [prednisone] | showed the inhibitory effect | – |
| CN1C(=O)[C@]23CC4=CC=C[C@H](O)[C@H]4N2C(=O)[C@@]1(CO)SS3 [gliotoxin] | – | effect on TNF-α production in blood (TNF-α; carried by safeplexes, inhibitor/DOTAP 1/6 mol/mol, 2 h after injection): showed the inhibitory effect; recovery of immune cells (immune cells): significant delay |
| COc1ccc2c(c1)c(CC(=O)O)c(C)n2C(=O)c1ccc(Cl)cc1 [indomethacin] | showed the inhibitory effect | – |
| COc1ccc2cc1Oc1ccc(cc1)C[C@H]1c3cc(c(OC)cc3CCN1C)Oc1c(OC)c(OC)cc3c1[C@H](C2)N(C)CC3 [tetrandrine] | showed the inhibitory effect | – |
| Dexamethasone-Water Soluble [free DEX] | – | inhibition of TNF-α (TNF-α; 32 μg free DEX intravenously, immediately followed by DNA/DOTAP complexes): less than 45% |
